Data set [1] deals with T1, Kappa-type opioid receptor (Homo sapiens, UniProt P41145). Put plainly: Displacement of [3H]diprenorphine from human kappa opioid receptor expressed in CHO cell membranes at 10^-6 M after 30 mins by liquid scintillation counting analysis. (In general: Displacement assays read how much labelled ligand stays bound in the presence of the test substance.)
For data set [2], the target named is T1, Kappa-type opioid receptor. Put plainly: Displacement of [3H]diprenorphine from human kappa opioid receptor expressed in CHO cell membranes at 10^-5 M after 30 mins by liquid scintillation counting analysis.
Data set [3] deals with Mu-type opioid receptor (Rattus norvegicus) (UniProt P33535). The data set can be described thus: Displacement of [3H]diprenorphine from rat mu opioid receptor expressed in CHO cell membranes at 10^-5 M after 30 mins by liquid scintillation counting analysis.
The target is the same in data set [4]. The data set can be described thus: Displacement of [3H]diprenorphine from rat mu opioid receptor expressed in CHO cell membranes at 10^-6 M after 30 mins by liquid scintillation counting analysis.
The target of data set [5] is T1, Kappa-type opioid receptor. Put plainly: Displacement of [3H]diprenorphine from human kappa opioid receptor expressed in CHO cell membranes after 30 mins by liquid scintillation counting analysis.
A short description of data set [6]: Selectivity ratio of Ki for rat mu opioid receptor to Ki for human kappa opioid receptor.
For data set [7], the system named is Mus musculus. Put plainly: Sedative activity in sc dosed Kunming mouse assessed as center square duration time at 25 ug/kg after 45 mins by open field test (reference value: 13.2 +/- 3.1 secs). Format: ADME, organism-based. The conditions noted are these: in vivo, 0.025 mg/kg, 0.75 h.
Data set [8] concerns Mus musculus. Put plainly: Peripheral restriction index, ratio of sedative ED50 in sc dosed Kunming mouse to antinociceptive ED50 in ip dosed mouse.
Data set [9] relates to Mus musculus. Put plainly: Sedative activity in sc dosed Kunming mouse assessed as […] after 20 mins by rotation test. Particulars: in vivo. Format: ADME, organism-based.
Data set [10] concerns Mus musculus. Put plainly: Antinociceptive activity in ip dosed mouse assessed as acetic acid induced writhing administered 30 mins prior to acetic acid challenge measured for 20 mins. The format is functional. A general note: Writhing tests count abdominal constrictions after an irritant is injected.
The subject of data set [11] is Mus musculus. Put plainly: Sedative activity in sc dosed Kunming mouse assessed as center square duration distance at 25 ug/kg after 45 mins by open field test (reference value: 1.77 +/- 0.81 m). Format: ADME, organism-based. Particulars: in vivo, 0.025 mg/kg, 0.75 h.
Data set [12] has as its system Mus musculus. Put plainly: Sedative activity in sc dosed Kunming mouse assessed as crossing number at 25 ug/kg after 45 mins by open field test (reference value: 155 +/- 34). Format: ADME, organism-based. The conditions noted are these: in vivo, 0.025 mg/kg, 0.75 h.
The subject of data set [13] is Mus musculus. The data set can be described thus: Sedative activity in sc dosed Kunming mouse assessed as center square duration time at 100 ug/kg after 45 mins by open field test (reference value: 13.2 +/- 3.1 secs). The format is ADME, organism-based. Particulars: in vivo, 0.1 mg/kg, 0.75 h.
Data set [14] concerns Mus musculus. The data set can be described thus: Sedative activity in sc dosed Kunming mouse assessed as center square duration distance at 200 ug/kg after 45 mins by open field test (reference value: 1.77 +/- 0.81 m). The format is ADME, organism-based. Particulars: in vivo, 0.2 mg/kg, 0.75 h.
Data set [15] relates to Mus musculus. Put plainly: Potency index, ratio of antinociceptive ED50 for U50488H to antinociceptive ED50 for test compound in ip dosed mouse after 20 mins. Format: functional.
Data set [16] deals with Mus musculus. The data set can be described thus: Sedative activity in sc dosed Kunming mouse assessed as center square duration time at 200 ug/kg after 45 mins by open field test (reference value: 13.2 +/- 3.1 secs). The format is ADME, organism-based. The conditions noted are these: in vivo, 0.2 mg/kg, 0.75 h.
The subject of data set [17] is Mus musculus. Put plainly: Sedative activity in sc dosed Kunming mouse assessed as crossing number at 100 ug/kg after 45 mins by open field test (reference value: 155 +/- 34). Format: ADME, organism-based. The conditions noted are these: in vivo, 0.1 mg/kg, 0.75 h.
Data set [18] deals with Mus musculus. Put plainly: Sedative activity in sc dosed Kunming mouse assessed as center square duration time at 50 ug/kg after 45 mins by open field test (reference value: 13.2 +/- 3.1 secs). Format: ADME, organism-based. The conditions noted are these: in vivo, 0.05 mg/kg, 0.75 h.
For data set [19], the system named is Mus musculus. The data set can be described thus: Sedative activity in sc dosed Kunming mouse assessed as crossing number at 200 ug/kg after 45 mins by open field test (reference value: 155 +/- 34). Format: ADME, organism-based. The conditions noted are these: in vivo, 0.2 mg/kg, 0.75 h.
Data set [20] concerns Mus musculus. Put plainly: Sedative activity in sc dosed Kunming mouse assessed as crossing number at 50 ug/kg after 45 mins by open field test (reference value: 155 +/- 34). The conditions noted are these: in vivo, 0.05 mg/kg, 0.75 h. Format: ADME, organism-based.
The test system of data set [21] is Mus musculus. Put plainly: Sedative activity in sc dosed Kunming mouse assessed as center square duration distance at 50 ug/kg after 45 mins by open field test (reference value: 1.77 +/- 0.81 m). Format: ADME, organism-based. The conditions noted are these: in vivo, 0.05 mg/kg, 0.75 h.
In data set [22] the test system is Mus musculus. Put plainly: Sedative activity in sc dosed Kunming mouse assessed as center square duration distance at 100 ug/kg after 45 mins by open field test (reference value: 1.77 +/- 0.81 m). Format: ADME, organism-based. The conditions noted are these: in vivo, 0.1 mg/kg, 0.75 h.

The structures appear in SMILES notation.

Mu-type opioid receptor (Rattus norvegicus), sequence (P33535 whole entry): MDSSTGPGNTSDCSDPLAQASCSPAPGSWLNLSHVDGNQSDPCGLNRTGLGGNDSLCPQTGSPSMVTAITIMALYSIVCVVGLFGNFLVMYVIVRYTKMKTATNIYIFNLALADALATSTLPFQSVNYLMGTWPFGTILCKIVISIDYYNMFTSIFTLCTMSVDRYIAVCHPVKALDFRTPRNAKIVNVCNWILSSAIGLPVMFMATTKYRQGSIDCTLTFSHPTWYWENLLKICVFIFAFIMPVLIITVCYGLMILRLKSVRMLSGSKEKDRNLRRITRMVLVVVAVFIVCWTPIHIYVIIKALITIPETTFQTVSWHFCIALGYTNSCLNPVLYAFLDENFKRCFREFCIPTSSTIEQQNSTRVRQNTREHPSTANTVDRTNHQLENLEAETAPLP
T1 sequence (P41145 whole entry): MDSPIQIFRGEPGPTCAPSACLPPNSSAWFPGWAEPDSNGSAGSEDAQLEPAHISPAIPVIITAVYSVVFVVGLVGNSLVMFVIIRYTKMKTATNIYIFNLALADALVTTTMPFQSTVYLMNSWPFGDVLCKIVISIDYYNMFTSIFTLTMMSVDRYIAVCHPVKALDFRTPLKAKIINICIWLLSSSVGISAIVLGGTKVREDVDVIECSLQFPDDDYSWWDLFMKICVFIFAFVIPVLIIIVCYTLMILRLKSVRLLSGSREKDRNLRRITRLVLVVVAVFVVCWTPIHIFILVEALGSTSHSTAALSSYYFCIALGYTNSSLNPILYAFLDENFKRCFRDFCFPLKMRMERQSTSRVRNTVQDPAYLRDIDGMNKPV

The term inhibition denotes the relative decrease from the control value, in per cent. A high value points to a strong effect. For `O=C1CC(C(=O)N2CCc3ccccc3C2C[N+]2(Cc3ccc(F)cc3)CCCC2)c2cc(Cl)ccc21` (stereo not drawn), the inhibition in data set [1] was 0%; in data set [2], 13.1%; in data set [3] it was 0%; in [4] it was 0%.
As for `O=C1CC(C(=O)N2CCc3ccccc3C2C[N+]2(Cc3ccc(Cl)cc3Cl)CCCC2)c2cc(Cl)ccc21` (stereo not drawn), the inhibition stood at 12.1% in data set [1], 31.9% in data set [2], 10.4% in data set [3] and 0% in data set [4].
For `COc1ccc2c(c1)C(C[N+]1(C)CCCC1)N(C(=O)C1CC(=O)c3ccc(Cl)cc31)CC2` (stereo not drawn), in that order: 0%, 8.6%, 0% and 0%.
One may read the Ki as a measure of affinity in units of concentration, obtained from inhibition or displacement. `C[N+]1(CC2c3cc(F)ccc3CCN2C(=O)C2CC(=O)c3ccc(Cl)cc32)CCCC1` (stereo not drawn) gave an inhibition constant (Ki) in data set [5] of 138 nM. Besides, the inhibition in data set [1] was found to be 86%; in data set [2], 97.4%; in [3] it was 26.5%; in data set [4], 8.9%.
`COc1ccc(C[N+]2(CC3c4ccccc4CCN3C(=O)C3CC(=O)c4ccc(Cl)cc43)CCCC2)cc1` (stereo not drawn): the inhibition in data set [1] came to 3.9%; in data set [2], 83%; in data set [3] it was 9.8%; in data set [4] it was 0%.
The matching figures for `O=C1CC(C(=O)N2CCc3ccccc3C2C[N+]2(Cc3ccccc3)CCCC2)c2cc(Cl)ccc21` (stereo not drawn): 43.1%, 86%, 0% and 0%.
Broadly, the ED50 is the midpoint of the dose-response relation. Turning to `O=C1CC(C(=O)N2CCc3ccccc3C2CN2CCCC2)c2cc(Cl)ccc21` (stereo not drawn), the Ratio Ki in data set [6] was 21.1. The compound further gave an inhibition constant (Ki) in data set [5] of 0.033 nM. The Time in data set [7] worked out at 27.1 s. Besides, the “Ratio ED50” value in data set [8] is 1.4. The 50% effective dose (ED50) in [9] was determined as 0.000568 mg/kg; in data set [10] it was 0.000406 mg/kg. Moreover, the Activity in data set [11] turned out to be 1.21 m; in data set [12], 71.
In [5], `CCCC[N+]1(CC2c3ccccc3CCN2C(=O)C2CC(=O)c3ccc(Cl)cc32)CCCC1.[I-]` (stereo not drawn) yielded an inhibition constant (Ki) of 0.94 nM. Also, the results for the Time in data set [13], in [16] and in data set [18] were 19.1 s, 27.4 s and 17.4 s, respectively. Moreover, the Activity is 1.93 m in [14]; 138 in [17]; 91 in [19]; 153 in [20]; 1.02 m in data set [21]; 1.92 m in data set [22]. The “Ratio ED50” value in [15] was 40; in [8], 10.2. For the same compound, the inhibition stood at 100% in [1], 100% in data set [2], 62.4% in data set [3] and 28.8% in data set [4]. In addition, the figures for the median effective dose (ED50) in [9] and in data set [10] were 0.24 mg/kg and 0.022 mg/kg, respectively.
With `O=C1CC(C(=O)N2CCc3ccccc3C2C[N+]2(CC3CC3)CCCC2)c2cc(Cl)ccc21` (stereo not drawn), in data set [5], the Ki is 3.56 nM. In addition, the inhibition stood at 98.8% in data set [1], 100% in data set [2], 48% in data set [3] and 29.2% in data set [4].
For `C[N+]1(CC2c3ccc(O)cc3CCN2C(=O)C2CC(=O)c3ccc(Cl)cc32)CCCC1` (stereo not drawn), in that order: 231 nM, 67.3%, 87.7%, 34.5% and 8.2%.
The matching figures for `C[N+]1(CC2c3ccccc3CCN2C(=O)C2CC(=O)c3ccc(Cl)cc32)CCCC1` (stereo not drawn): over 10000 nM, 10.8%, 83.7%, 0% and 0%.
Turning to `CC[N+]1(CC2c3ccccc3CCN2C(=O)C2CC(=O)c3ccc(Cl)cc32)CCCC1` (stereo not drawn), the inhibition in data set [1] was 31.9%; in [2], 89.1%; in data set [3] it was 0%; in data set [4], 0%.
`C=CC[N+]1(CC2c3ccccc3CCN2C(=O)C2CC(=O)c3ccc(Cl)cc32)CCCC1` (stereo not drawn) had a Ki in data set [5] of 1.86 nM. Besides, the inhibition came out at 100% in data set [1], 100% in [2], 56.5% in data set [3] and 37.4% in data set [4].
With `COc1ccc2c(c1)CCN(C(=O)C1CC(=O)c3ccc(Cl)cc31)C2C[N+]1(C)CCCC1` (stereo not drawn), the inhibition came out at 50% in [1], 85.5% in data set [2], 9.8% in data set [3] and 4% in data set [4].
Regarding `O=C1CC(C(=O)N2CCc3ccccc3C2C[N+]2(Cc3ccc(Cl)cc3)CCCC2)c2cc(Cl)ccc21` (stereo not drawn), the inhibition is 31.3% in data set [1], 89.3% in data set [2], 10% in data set [3] and 0% in [4].
